Test results from ChEMBL document CHEMBL3885881, “DrugMatrix”.

Species: Rattus norvegicus
Assay: DrugMatrix - Regimen: Daily Repeat
Format: toxicity, organism-based, Sprague-Dawley
Parameters: regimen Daily Repeat, gender Male, age 6-8 weeks
Settings: in vivo, po, route oral GAVAGE, […]; for ABSOLUTE BASOPHIL / ABSOLUTE EOSINOPHIL / ABSOLUTE LYMPHOCYTE / ABSOLUTE MONOCYTE / ABSOLUTE SEGMENTED NEUTROPHIL / BASOPHIL / EOSINOPHIL / ERYTHROCYTE COUNT / HEMATOCRIT / HEMOGLOBIN / LEUKOCYTE COUNT / LYMPHOCYTE / MEAN CORPUSCULAR HEMOGLOBIN / MEAN CORPUSCULAR HEMOGLOBIN CONCENTRATION / MEAN CORPUSCULAR VOLUME / MONOCYTE / NEUTROPHIL / NUCLEATED RED BLOOD CELLS / PLATELET COUNT: tissue Blood; for ALANINE AMINOTRANSFERASE / ALBUMIN / ALKALINE PHOSPHATASE / ASPARTATE AMINOTRANSFERASE / BLOOD UREA NITROGEN / CARBON DIOXIDE / CHLORIDE / CHOLESTEROL / CREATINE PHOSPHOKINASE / CREATININE / GLUCOSE / LACTATE DEHYDROGENASE / LIPASE / PHOSPHORUS / POTASSIUM / SODIUM / TOTAL BILIRUBIN / TOTAL PROTEIN / URIC ACID: tissue Plasma
[1] = 12 mg/kg, 120 h, dose level Low, time 5 day
[2] = 75 mg/kg, 72 h, dose level High, time 3 day
[3] = 75 mg/kg, 120 h, dose level High, time 5 day

CO[C@H]1/C=C/O[C@@]2(C)Oc3c(C)c(O)c4c(O)c(c(/C=N/N5CCN(C6CCCC6)CC5)c(O)c4c3C2=O)NC(=O)/C(C)=C\C=C\[C@H](C)[C@H](O)[C@@H](C)[C@@H](O)[C@@H](C)[C@H](OC(C)=O)[C@@H]1C [RIFAPENTINE]
ABSOLUTE BASOPHIL [1]: 0 CELLS/uL | ABSOLUTE EOSINOPHIL [1]: 0 CELLS/uL | ABSOLUTE LYMPHOCYTE [1]: 14120.67 CELLS/uL | ABSOLUTE MONOCYTE [1]: 159.67 CELLS/uL | ABSOLUTE SEGMENTED NEUTROPHIL [1]: 1686.33 CELLS/uL | BASOPHIL [1]: 0% | EOSINOPHIL [1]: 0% | ERYTHROCYTE COUNT [1]: 5.71 x10E6/uL | HEMATOCRIT [1]: 35.8% | HEMOGLOBIN [1]: 13.33 G/DL | LEUKOCYTE COUNT [1]: 15.97 x10E3/uL | LYMPHOCYTE [1]: 88.33% | MEAN CORPUSCULAR HEMOGLOBIN [1]: 23.4 pg | MEAN CORPUSCULAR HEMOGLOBIN CONCENTRATION [1]: 37.3 G/DL | MEAN CORPUSCULAR VOLUME [1]: 62.73 fL | MONOCYTE [1]: 1% | NEUTROPHIL [1]: 10.67% | NUCLEATED RED BLOOD CELLS [1]: 0 /100WBC | PLATELET COUNT [1]: 1349 x10E3/uL | ALANINE AMINOTRANSFERASE [1]: 49.33 u/L | ALBUMIN [1]: 4.07 G/DL | ALKALINE PHOSPHATASE [1]: 549.33 u/L | ASPARTATE AMINOTRANSFERASE [1]: 91.67 u/L | BLOOD UREA NITROGEN [1]: 16 mg/dL | CARBON DIOXIDE [1]: 28 mmol/L | CHLORIDE [1]: 102.67 MEQ/L | CHOLESTEROL [1]: 54.33 mg/dL | CREATINE PHOSPHOKINASE [1]: 385.33 u/L | CREATININE [1]: 0.16 mg/dL | GLUCOSE [1]: 167.67 mg/dL | LACTATE DEHYDROGENASE [1]: 391.67 u/L | LIPASE [1]: 9.67 u/L | PHOSPHORUS [1]: 11.2 mg/dL | POTASSIUM [1]: 6.39 MEQ/L | SODIUM [1]: 142.5 MEQ/L | TOTAL BILIRUBIN [1]: 0.3 mg/dL | TOTAL PROTEIN [1]: 5.9 G/DL | URIC ACID [1]: 1.7 mg/dL | ABSOLUTE BASOPHIL [2]: 0 CELLS/uL | ABSOLUTE EOSINOPHIL [2]: 0 CELLS/uL | ABSOLUTE LYMPHOCYTE [2]: 7973.67 CELLS/uL | ABSOLUTE MONOCYTE [2]: 130.33 CELLS/uL | ABSOLUTE SEGMENTED NEUTROPHIL [2]: 596 CELLS/uL | BASOPHIL [2]: 0% | EOSINOPHIL [2]: 0% | ERYTHROCYTE COUNT [2]: 5.11 x10E6/uL | HEMATOCRIT [2]: 32.07% | HEMOGLOBIN [2]: 12.17 G/DL | LEUKOCYTE COUNT [2]: 8.7 x10E3/uL | LYMPHOCYTE [2]: 92% | MEAN CORPUSCULAR HEMOGLOBIN [2]: 23.8 pg | MEAN CORPUSCULAR HEMOGLOBIN CONCENTRATION [2]: 37.97 G/DL | MEAN CORPUSCULAR VOLUME [2]: 62.73 fL | MONOCYTE [2]: 1.33% | NEUTROPHIL [2]: 6.67% | NUCLEATED RED BLOOD CELLS [2]: 0 /100WBC | PLATELET COUNT [2]: 1158.67 x10E3/uL | ALANINE AMINOTRANSFERASE [2]: 71.33 u/L | ALBUMIN [2]: 4.07 G/DL | ALKALINE PHOSPHATASE [2]: 536.33 u/L | ASPARTATE AMINOTRANSFERASE [2]: 84.33 u/L | BLOOD UREA NITROGEN [2]: 11 mg/dL | CARBON DIOXIDE [2]: 29.33 mmol/L | CHLORIDE [2]: 104.33 MEQ/L | CHOLESTEROL [2]: 73 mg/dL | CREATINE PHOSPHOKINASE [2]: 243 u/L | CREATININE [2]: 0.1 mg/dL | GLUCOSE [2]: 158.33 mg/dL | LACTATE DEHYDROGENASE [2]: 88 u/L | LIPASE [2]: 8.67 u/L | PHOSPHORUS [2]: 11.53 mg/dL | POTASSIUM [2]: 6.14 MEQ/L | SODIUM [2]: 147.17 MEQ/L | TOTAL BILIRUBIN [2]: 0.6 mg/dL | TOTAL PROTEIN [2]: 5.77 G/DL | URIC ACID [2]: 1.13 mg/dL | ABSOLUTE BASOPHIL [3]: 0 CELLS/uL | ABSOLUTE EOSINOPHIL [3]: 83.33 CELLS/uL | ABSOLUTE LYMPHOCYTE [3]: 14410.33 CELLS/uL | ABSOLUTE MONOCYTE [3]: 288.33 CELLS/uL | ABSOLUTE SEGMENTED NEUTROPHIL [3]: 1718 CELLS/uL | BASOPHIL [3]: 0% | EOSINOPHIL [3]: 0.67% | ERYTHROCYTE COUNT [3]: 6.37 x10E6/uL | HEMATOCRIT [3]: 38.63% | HEMOGLOBIN [3]: 14 G/DL | LEUKOCYTE COUNT [3]: 16.5 x10E3/uL | LYMPHOCYTE [3]: 87% | MEAN CORPUSCULAR HEMOGLOBIN [3]: 21.97 pg | MEAN CORPUSCULAR HEMOGLOBIN CONCENTRATION [3]: 36.2 G/DL | MEAN CORPUSCULAR VOLUME [3]: 60.67 fL | MONOCYTE [3]: 1.67% | NEUTROPHIL [3]: 10.67% | NUCLEATED RED BLOOD CELLS [3]: 0 /100WBC | PLATELET COUNT [3]: 1299.67 x10E3/uL | ALANINE AMINOTRANSFERASE [3]: 72 u/L | ALBUMIN [3]: 4.13 G/DL | ALKALINE PHOSPHATASE [3]: 446.67 u/L | ASPARTATE AMINOTRANSFERASE [3]: 99.33 u/L | BLOOD UREA NITROGEN [3]: 13.67 mg/dL | CARBON DIOXIDE [3]: 27.67 mmol/L | CHLORIDE [3]: 101 MEQ/L | CHOLESTEROL [3]: 39 mg/dL | CREATINE PHOSPHOKINASE [3]: 886.67 u/L | CREATININE [3]: 0.13 mg/dL | GLUCOSE [3]: 164 mg/dL | LACTATE DEHYDROGENASE [3]: 219.67 u/L | LIPASE [3]: 7.67 u/L | PHOSPHORUS [3]: 11.07 mg/dL | POTASSIUM [3]: 6.28 MEQ/L | SODIUM [3]: 141.1 MEQ/L | TOTAL BILIRUBIN [3]: 0.4 mg/dL | TOTAL PROTEIN [3]: 5.87 G/DL | URIC ACID [3]: 1.47 mg/dL
